Values joined by “and” are separate entries in the source; they are usually repeats but may differ in a detail not shown here. Identical values can stand only once. Counter-ions that a name gives are not always drawn. Like-named read-outs stand apart in the source and are kept apart here.
Columns and labels:
rats [1] = assay: Neurotoxicity in rats, positional sense test and gait stance test; settings: rats p.o.; positional sense test and gait stance test
Experimental: (§1) Neurotoxicity of the claimed agents was also assessed in mice (i.p. administration) by the rotorod ataxia test and/or in rats (p.o. administration) by positional sense test and gait stance test. […] The term quantitating the neurotoxicity is the medial neurological toxic dose (TD50), was determined in the above tests.

mice [2] = assay: Maximal electroshock (MES) model, mice; settings: mice; for MICE MES ED50: intraperitoneal (i.p.) administration
mice [3] = settings: mice i.p.
mice [4] = assay: Neurotoxicity in mice, rotorod ataxia test; settings: mice i.p., rotorod ataxia test
Experimental: as §1

rats [5] = assay: Maximal electroshock (MES) model, rats; settings: rats, oral (p.o.) administration; median effective dose
[6] = tested on: Mechanically dissociated Neonatal Rat Cerebellum; assay: Reversal of NMDA induced cell death, neonatal rat cerebellum cultures; format: cell-based; settings: for SURVIVING CELL IN CULTURE: relative to control (100%); for PERCENT PROTECTION: cell survival minus NMDA effect (30%); for EFFECTIVE PROTECTION: percent protection x 100/70
Experimental: The cerebellum was aseptically dissociated from 6 or 7-day old rat pups and placed in a 15 ml sterile plastic conical tube containing 3 ml of Dulbecco's modified Eagle's medium (DMEM) with a high glucose concentration ([…]) and 2 mM (v/v) L-glutamine and an antibiotic antimitotic mixture. The cerebella were then dissociated after 20-25 passages through a sterile 13 gauge, 10 cm long stainless steel needle attached to a 5 ml syringe with an inserted 45 micrometer pore nylon sieve. The dissociated cells were centrifuged at 200 g for 5 minutes. The supernatant was discarded and the cells resuspended in medium enriched with 15% (v/v) heat inactivated fetal calf serum. Cell viability was determined by the tryptan blue exclusion test.
Cells were plated at a density of 200/mm^2 on poly-L-lysine coated surfaces. Poly-L-lysine coated glass coverslips were prepared at least one hour in advance of plating by immersing sterile coverslips in sterile distilled water solution containing 15 microgram/ml poly-L-lysine, and washing in sterile water just prior to use. The plated cells were covered with enriched medium and incubated at 37° C. in an atmosphere of 5% CO2 in air and 97% humidity. After three days in culture, the media was replaced with media containing the desired test compound. Each test compound was tested in duplicate. Toxic-dose response was determined for each compound.
Four groups were run in each set of experiments;
I. Control, consisting of enriched media alone,
II. N-methyl-D-aspartate (NMDA, 1 mM for 3 hours) as the cytotoxic challenge,
III. Test compound plus NMDA, and
IV. Positive control, spermine(0.01 micromoles) plus NMDA.
Nerve cell survival was evaluated by phase contrast microscopy and tryptan blue staining after 24 hours.
Surviving cells in culture are measured relative to control (100%) as described above. Percent protection is the Cell Survival for the test compound minus the NMDA effect. Thus, maximal protection is 100% minus 30% NMDA effect i.e. 70%. The Effective Protection was calculated as the percent of the Percent Protection (X) divided by the maximal protection value (e.g. X×100/70).

mongolian gerbils = assay: Global brain ischemia in gerbils; format: in vivo, mongolian gerbil; settings: 3 injections, fraction of hippocampi protected from ischemia, 14 days post-ischemia
Experimental: Male mongolian gerbils, aged 2.5-5 months, housed 4-8 in a cage, were supplied freely with food and water and maintained at 24° C. with a 12 hour day/night cycle. […] Each artery was clamped for 5 minutes with aneurysm clips to produce global brain ischemia. The anesthesia was discontinued upon clamping. After 5 minutes the clamps were removed and the wound closed with skin clips.
For treatment, the test compound or vehicle were injected intra-peritoneally (ip) in a volume of 50 microliters of solvent per 10 g body weight. The first injection was given two minutes after clamp removal, and thereafter daily for the next 2 post-operative days (total of 3 injections).
Seven groups each of 4-8 animals were compared:
V. Ischemia—Test compound treated, one sub-group per concentration tested,
VI. Ischemia and pentobarbital (40 mg/kg) as positive control).
Analysis of neuronal damage was performed 14 days post-ischemia by counting pyramidal neurons throughout the CA1 layer of the anterior hippocampus in […] thick (paraffin) coronal brain sections stained with hematoxylin and erosin.
Percent Protection values represent the fraction of hippocampi protected from ischemia in a group of animals treated with the stated dose of compound.

rats [7] = settings: rats p.o.

Structure (SMILES) | RATS TD50 (rats [1]) | MICE MES ED50 (mice [2]) | MICE scMet ED50 PI (mice [3]) | MICE TD50 (mice [4]) | RATS MES 50 (rats [5]) | further results
Cl.NC(=O)CN[C@@H]1CCc2ccccc21 [D, (R)-Indanylglycinamide-HCl salt] | >180 mg/kg | 83 mg/kg | >130 mg/kg |  |  | 
NC(=O)CNC1CCc2ccc(F)cc21 (racemic) [Compound 5, (rac)-6-Fluoro-N-(2-acetamido)-1-aminoindan.HCl] |  | <100 mg/kg | >200 mg/kg | >300 mg/kg |  | MICE TD50 (mice [4]; listed as 5*): 138 mg/kg; activity in the MES model in mice, in words (mice [2]): showed activity; MICE MES ED50 (mice [2]; listed as 5*): 58 mg/kg
NC(=O)CN[C@@H]1CCc2ccccc21 [Compound 1, (R)-N-(2-Acetamido)-1-aminoindan.HCl] | >50 mg/kg | 77 mg/kg | >200 mg/kg | 198 mg/kg | 50 mg/kg | 
NC(=O)CNC1CCc2ccccc21 (racemic) [Compound 3, (rac)-N-(2-Acetamido)-1-aminoindan.HCl] | >50 mg/kg | <100 mg/kg | 36 mg/kg | >100 mg/kg and 126 mg/kg | <50 mg/kg | MICE TD50 (mice [4]; listed as 3*): 127 mg/kg; MICE MES ED50 (mice [2]; listed as 3*): 83 mg/kg; MICE scMet ED50 PI (mice [3]; listed as 3*): >130 mg/kg
Cl.N[C@@H]1CCc2ccc(O)cc21 [Compound 35, (R)-6-Hydroxy-1-aminoindan.HCl] |  |  |  |  |  | SURVIVING CELL IN CULTURE ([6]; 0.005 μM + NMDA 1 mM 3 hours): 60%; PERCENT PROTECTION ([6]; 0.005 μM + NMDA): 30%; EFFECTIVE PROTECTION ([6]; 0.005 μM + NMDA): 43%; SURVIVING CELL IN CULTURE ([6]; 0.010 μM + NMDA 1 mM 3 hours): 34%; PERCENT PROTECTION ([6]; 0.010 μM + NMDA): 4%; EFFECTIVE PROTECTION ([6]; 0.010 μM + NMDA): 6%; SURVIVING CELL IN CULTURE ([6]; 0.100 μM + NMDA 1 mM 3 hours): 30%; PERCENT PROTECTION ([6]; 0.100 μM + NMDA): 0%; EFFECTIVE PROTECTION ([6]; 0.100 μM + NMDA): 0%; PERCENT PROTECTION (mongolian gerbils; 0.1 mg/kg ip): 25.0%; PERCENT PROTECTION (mongolian gerbils; 1.0 mg/kg ip): 37.5%; PERCENT PROTECTION (mongolian gerbils; 10.0 mg/kg ip): 37.5%
CN[C@H]1CCc2ccccc21.Cl [Compound 14, (S)-N-Methyl-1-aminoindan.HCl] | >142 mg/kg | <100 mg/kg |  | 100 mg/kg | 94 mg/kg | RATS scMet ED50 PI (rats [7]): >71 mg/kg
